From patent US4263255A, “Assay method and compounds” (Burroughs Wellcome Co., priority 1979, dated 1981)
Structures can show the parent of a compound that is named as a salt. Where a SMILES comes first, the peptide text is derived from it. Where no end group is shown, it is not given here. [ ]: non-standard residue; d: D form.

What follows are molecules tested against opiate receptor (assay: Opiate receptor affinity by method of Pasternak et al. using tritiated naloxone, absence of sodium ions). Conditions: TABLE 1 (Example 2), method indicated in Example 1: tritiated naloxone.
Type: binding
Experimental: *Method of Pasternak, G. W. et al., Molecular Pharmacology, 11, 340-351
(1975) using tritiated naloxone and in the absence of sodium ions; assays
performed at 4° C. in the presence of bacitracin (50 μg/ml) in
trishydrochloric acid buffer (50 mM, pH 7.4).
(§1) The opiate receptor IC50 (M) was ascertained by the method indicated in Example 1.
as §1
In the case of `CSCC[C@H](NC(=O)[C@H](Cc1ccccc1)NC(=O)CNC(=O)[C@@H](C)NC(=O)[C@@H](N)Cc1ccc(O)cc1)C(=O)N[C@H](C(=O)O)[C@@H](C)O` [(E), H . Tyr . D-Ala . Gly . Phe . Met . Thr . OH HCl] (H-Y[dA]GFMT-OH), the IC50 is reported as 5.6 nM.
`COC(=O)[C@H](CCSC)NC(=O)[C@H](Cc1ccccc1)NC(=O)CNC(=O)[C@@H](C)NC(=O)[C@@H](N)Cc1ccc(O)cc1` [(D), H . Tyr . D-Ala . Gly . Phe . Met . OMe] showed an IC50 of 5 nM.
With `CSCC[C@@H](NC(=O)[C@H](Cc1ccccc1)NC(=O)CNC(=O)[C@@H](C)NC(=O)[C@@H](N)Cc1ccc(O)cc1)C(=O)O` [(J), H . Tyr . D-Ala . Gly . Phe . D-Met . OH HCl] the IC50 was 8 nM.
`CC(C)C[C@H](NC(=O)[C@H](Cc1ccccc1)NC(=O)CNC(=O)[C@@H](C)NC(=O)[C@@H](N)Cc1ccc(O)cc1)C(=O)N[C@H](C(=O)O)[C@@H](C)O` [(G), H . Tyr . D-Ala . Gly . Phe . Leu . Thr . OH HCl] (H-Y[dA]GFLT-OH) was tested, and the IC50 was 8 nM.
Work on `CC(C)C[C@@H](NC(=O)[C@H](Cc1ccc(Cl)cc1)NC(=O)CNC(=O)[C@@H](C)NC(=O)[C@@H](N)Cc1ccc(O)cc1)C(=O)O` [(K), H . Tyr . D-Ala . Gly . Phe (4Cl) . D-Leu . OH HCl] yielded an IC50 of 1 nM.
`COC(=O)[C@@H](CC(C)C)NC(=O)[C@H](Cc1ccc(Cl)cc1)NC(=O)CNC(=O)[C@@H](C)NC(=O)[C@@H](N)Cc1ccc(O)cc1` [(L), H . Tyr . D-Ala . Gly . Phe (4Cl) . D-Leu . OMe HCl] gave an IC50 of 2 nM.

Same assay, conditions: TABLE 2 (Example 3), method indicated in Example 1: tritiated naloxone
In the case of `CC(C)C[C@@H](NC(=O)[C@H](Cc1ccccc1)NC(=O)CNC(=O)[C@@H](C)NC(=O)[C@@H](N)Cc1ccc(O)cc1)C(=O)N[C@H](C(=O)O)[C@@H](C)O` [(R), H . Tyr . D-Ala . Gly . Phe . D-Leu . Thr . OH HCl] (H-Y[dA]GF[dL]T-OH), the IC50 is reported as 30 nM.
Molecule `CC(C)C[C@H](NC(=O)[C@H](Cc1ccccc1)NC(=O)[C@H](C)NC(=O)[C@@H](C)NC(=O)[C@@H](N)Cc1ccc(O)cc1)C(=O)O` [(N), H . Tyr . D-Ala . Ala . Phe . Leu . OH HCl] (H-Y[dA]AFL-OH) has an IC50 of 80 nM.
In the case of `CCCC[C@H](NC(=O)[C@H](Cc1ccccc1)NC(=O)CNC(=O)CNC(=O)[C@@H](N)Cc1ccc(O)cc1)C(=O)O` [(O), H . Tyr . Gly . Gly . Phe . Nle . OH HCl], the IC50 is reported as 80 nM.
In the case of `COC(=O)[C@@H](CC(C)C)NC(=O)[C@H](Cc1ccccc1)NC(=O)CNC(=O)CNC(=O)[C@@H](N)Cc1ccc(O)cc1` [(W), H . Tyr . Gly . Gly . Phe . D-Leu . OMe HCl], the IC50 is reported as 60 nM.
Molecule `C[C@@H](NC(=O)[C@@H](N)Cc1ccc(O)cc1)C(=O)NCC(=O)N[C@@H](Cc1ccccc1)C(=O)O` [(T), H . Tyr . D-Ala . Gly . Phe . OH HCl] has an IC50 of 70 nM.
In the case of `CC(C)C[C@@H](NC(=O)[C@H](Cc1ccccc1)NC(=O)CNC(=O)[C@@H](C)NC(=O)[C@@H](N)Cc1ccc(O)cc1)C(=O)Oc1ccc(Cl)cc1` [(U), H . Tyr . D-Ala . Gly . Phe . D-Leu . p-chlorophenyl ester HCl], the IC50 is reported as 50 nM.
Molecule `CCNC(=O)[C@@H](CC(C)C)NC(=O)[C@H](Cc1ccc(Cl)cc1)NC(=O)CNC(=O)[C@@H](C)NC(=O)[C@@H](N)Cc1ccc(O)cc1` [(A1), H . Tyr . D-Ala . Gly . Phe(4Cl) . D-Leu . NHEt HCl] has an IC50 of 80 nM.
Molecule `CSCC[C@@H](NC(=O)[C@H](Cc1ccccc1)NC(=O)CNC(=O)[C@@H](C)NC(=O)[C@@H](N)Cc1ccc(O)cc1)C(=O)N[C@H](C(=O)O)[C@@H](C)O` [(S), H . Tyr . D-Ala . Gly . Phe . D-Met . Thr . OH HCl] (H-Y[dA]GF[dM]T-OH) has an IC50 of 70 nM.
`C[C@@H](NC(=O)[C@@H](N)Cc1ccc(O)cc1)C(=O)NCC(=O)N[C@@H](Cc1ccccc1)C(=O)N[C@H](C(=O)O)[C@@H](C)O` [(Q), H . Tyr . D-Ala . Gly . Phe . Thr . OH HCl] (H-Y[dA]GFT-OH) was tested, and the IC50 was 90 nM.
`CN[C@@H](Cc1ccc(O)cc1)C(=O)N[C@H](C)C(=O)NCC(=O)N[C@@H](Cc1ccccc1)C(=O)N[C@H](CC(C)C)C(N)=O` [(X), H . MeTyr . D-Ala . Gly . Phe . D-Leu . NH2 HCl] was tested, and the IC50 was 20 nM.
In the case of `CSCC[C@@H](NC(=O)[C@H](Cc1ccccc1)NC(=O)CNC(=O)CNC(=O)[C@@H](N)Cc1ccc(O)cc1)C(=O)O` [(Z), H . Tyr . Gly . Gly . Phe . D-Met . OH HCl], the IC50 is reported as 10 nM.
In the case of `COC(=O)[C@@H](CCSC)NC(=O)[C@H](Cc1ccccc1)NC(=O)CNC(=O)CNC(=O)[C@@H](N)Cc1ccc(O)cc1` [(Y), H . Tyr . Gly . Gly . Phe . D-Met . OMe HCl], the IC50 is reported as 60 nM.
`CN[C@@H](Cc1ccc(O)cc1)C(=O)N[C@H](C)C(=O)NCC(=O)N[C@@H](Cc1ccccc1)C(=O)N[C@H](CC(C)C)C(=O)O` [(V), H . MeTyr . D-Ala . Gly . Phe . D-Leu . OH HCl] showed an IC50 of 30 nM.
Work on `CC(C)C[C@@H](NC(=O)[C@H](Cc1ccccc1)NC(=O)CNC(=O)CNC(=O)[C@@H](N)Cc1ccc(O)cc1)C(=O)O` [(P), H . Tyr . Gly . Gly . Phe . D-Leu . OH HCl] yielded an IC50 of 25 nM.
For “YGGFV [(M), H . Tyr . Gly . Gly . Phe . Val . OH HCl]”, the IC50 was 80 nM.

Same assay, conditions: table of Example 1, tritiated naloxone, 4° C., bacitracin 50 μg/ml, pH 7.4
`CSCC[C@H](NC(=O)[C@H](Cc1ccccc1)NC(=O)CNC(=O)[C@@H](C)NC(=O)[C@@H](N)Cc1ccc(O)cc1)C(=O)O` [(B), H . Tyr . D-Ala . Gly . Phe . Met . OH HCl] gave an IC50 of 3.8 nM.

Each molecule was assayed on opiate receptor (assay: Specific binding affinity for the opiate receptor of the radio-iodinated peaks). Conditions: first peak (monoiodinated) compared with second peak (diiodinated).
Experimental: The material comprising this peak was applied to a Sephadex 2-(diethylamino)ethyl ether column and eluted with sodium borate buffer (12.5 mM, pH 9.0, 0.1 N sodium chloride).
For `CC(C)C[C@H](NC(=O)[C@H](Cc1ccccc1)NC(=O)CNC(=O)[C@@H](C)NC(=O)[C@@H](N)Cc1ccc(O)c([125I])c1)C(=O)O` [material of the first peak, H.Tyr(3-^125 I).D-Ala.Gly.Phe.Leu.OH], the “specific binding affinity (for the opiate receptor)” value was “greater specific binding affinity”.
